Test results published in patent US11040038B2, “Methods for treating diseases associated with abnormal ACVR1 expression and ACVR1 inhibitors for use in the same” (Sumitomo Dainippon Pharma Oncology, Inc., priority 2018, dated 2021).

Legend:
[1] = tested on: hepcidin expression in HepG2 cells; assay: Inhibition of hepcidin expression in HepG2 cells (qPCR); assay type: cell-based; conditions: Homo sapiens
Procedure: To evaluate the in vitro efficacy of Compound 2, HepG2 cells were stimulated with the ALK2 ligand BMP-2 in the presence or absence of various concentrations of Compound 2 and the resulting levels of hepcidin expression were measured by qPCR. The results shown in FIG. 2A, reveal a strong, dose responsive inhibition of hepcidin transcription by Compound 2 (EC50<1 nM). Effects on basal hepcidin transcription were also measured (in the absence of BMP-2 stimulation) and the results are shown in FIG. 2B. Under these experimental conditions, Compound 2 inhibited hepcidin expression in a dose responsive manner (IC50˜100 nM).

[2] = tested on: ACVR1 mutant (G328V mutated cell line) and wild type DIPG cell lines; assay: Proliferation assay against DIPG cell lines; assay type: cell-based; conditions: ACVR1 G328V mutant vs wild type DIPG cell lines
Procedure: Compound 2 was tested in a proliferation assay against ACVR1 mutant (G328V mutated cell line) and wild type DIPG cell lines in vitro.

[3] = tested on: SMAD1/5 phosphorylation in BMP2 stimulated HepG2 cells; assay: Inhibition of SMAD1/5 phosphorylation in BMP2 stimulated HepG2 cells; assay type: cell-based; conditions: Homo sapiens; HepG2 cells stimulated with BMP2
Description: SMAD proteins are transcription factors involved in signaling downstream of TGFβ receptors. The TGFβ receptor ALK2 phosphorylates SMADs when activated by bone morphogenic proteins such as BMP2, which leads to SMAD nuclear translocation, transcriptional initiation and increased expression of genes like HAMP which codes for the peptide hormone hepcidin. Therefore, compounds that target ALK2 should inhibit BMP induced SMAD phosphorylation. In order to evaluate the in vitro potency of Compound 2, HepG2 cells were stimulated with the ALK2 ligand BMP2 in the presence or absence of various concentrations of Compound 2.

[4] = Preliminary brain PK study; assay type: in vivo; conditions: mouse, mice, brain tissue
Procedure: In order to be an effective treatment for DIPG, Compound 2 needs to distribute to the brain and more importantly, achieve fairly deep penetration to the pons region of the brain. To assess the general distribution of Compound 2 to the brain, a preliminary brain PK study was conducted. Brain tissue concentrations show very good distribution to the brain (FIG. 4A).

[5] = Pharmacokinetic and tissue distribution study; assay type: in vivo, CD-1 male mice; conditions: mice, 20 mg/kg PO; for Cmax / Tmax / half-life / AUC(0-t) / AUC: male, CD-1, mouse; for AUC: read-out: AUC0-?
Procedure: An additional pharmacokinetic and tissue distribution study was conducted to comprehensively evaluate Compound 2 exposure in multiple mouse organs. CD-1 male mice were dosed 20 mg/kg, PO with Compound 2 formulated in 20% solutol and 80% saline. Plasma and organs were collected at nine (9) time points and the drug concentrations were determined by LC-MS/MS. […] The results confirmed exposure in clinically relevant target organs, including brain and liver (Table 7).

[6] = IV and PO plasma pharmacokinetics in rats; assay type: in vivo; conditions: Sprague-Dawley, rat, fasted female SD rats
Procedure: Pharmacokinetic and toxicology of Compound 2 were tested in rats. The intravenous (IV) and oral (PO) pharmacokinetics of Compound 2 were determined in plasma in fasted female Sprague-Dawley (SD) rats. The formulation used was 20% solutol and 80% saline for both administration routes. The nominal dose was 2 mg/kg (IV) and 20 mg/kg (PO). Samples were taken at 8 time points and the drug concentrations were determined by LC-MS/MS.

[7] = Comparison of concentration in plasma and brain tissue; assay type: in vivo, mice; conditions: 20 mg/kg
Description: Additionally, a comparison of Compound 2 concentration in the plasma and brain tissue was made, the results of which are in FIG. 4B and Table 6.

[8] = tested on: ALK2/ACVR1 having various mutations; assay: Activity on ALK2/ACVR1 having various mutations (FIG. 8); assay type: biochemical
Description: Biochemical Studies indicate that mutations in the intracellular domain can have activating effects on ACVR1/ALK2 kinase activity. Many of the known mutations enhance the activity of the receptor in response to the receptor ligand.

[9] = Table 4, route and dose not given
[10] = Table 5, route and dose not given

EC50 ([1]; BMP-2 stimulation, qPCR, read-out: EC50, inhibition of hepcidin transcription): < 0.001 µM
IC50 ([1]; absence of BMP-2 stimulation, read-out: IC50, inhibition of basal hepcidin expression): ~0.1 µM
EC50 [3]: 0.162 µM
AUC(0-t) [4, 9]: 750 ng·h/mL
Cmax [4, 9]: 691 ng/g
Tmax [4, 9]: 0.083 h
half-life [4, 9]: 1.23 h
AUC(0-inf) ([4]; Table 4, route and dose not printed (FIG. 4A: intravenous and oral)): 758 ng·h/mL
AUC(0-t) [4, 10]: 10300 ng·h/mL
Cmax [4, 10]: 2740 ng/g
Tmax [4, 10]: 1.8 h
half-life [4, 10]: 2.57 h
AUC(0-inf) ([4]; Table 5, route and dose not printed (FIG. 4A: intravenous and oral)): 10300 ng·h/mL
Cmax ([5]; adrenals): 13800 ng/g
Tmax ([5]; adrenals): 1.3 h
half-life ([5]; adrenals): 3.3 h
Cmax ([5]; bladder): 2220 ng/g
Tmax ([5]; bladder): 3 h
half-life ([5]; bladder): 3.1 h
AUC(0-t) ([5]; bone marrow): 1940 ng·h/mL
Cmax ([5]; bone marrow): 240 ng/mL
Tmax ([5]; bone marrow): 4.5 h
half-life ([5]; bone marrow): 4.6 h
AUC ([5]; bone marrow): 2020 ng·h/mL
Cmax ([5]; brain): 1690 ng/g
Tmax ([5]; brain): 3.2 h
half-life ([5]; brain): 2.6 h
Cmax ([5]; intestine): 20200 ng/g
Tmax ([5]; intestine): 1.8 h
half-life ([5]; intestine): 3.6 h
Cmax ([5]; kidney): 31100 ng/g
Tmax ([5]; kidney): 2.3 h
half-life ([5]; kidney): 2.5 h
Cmax ([5]; liver): 79900 ng/g
Tmax ([5]; liver): 0.8 h
half-life ([5]; liver): 3.3 h
Cmax ([5]; lung): 18300 ng/g
Tmax ([5]; lung): 1.3 h
half-life ([5]; lung): 2.8 h
Cmax ([5]; pancreas): 10600 ng/g
Tmax ([5]; pancreas): 3.2 h
half-life ([5]; pancreas): 2.6 h
AUC(0-t) ([5]; plasma): 2340 ng·h/mL
Cmax ([5]; plasma): 378 ng/mL
Tmax ([5]; plasma): 1 h
half-life ([5]; plasma): 3.8 h
AUC ([5]; plasma): 2380 ng·h/mL
Cmax ([5]; spleen): 36200 ng/g
Tmax ([5]; spleen): 6 h
half-life ([5]; spleen): 13.3 h
Cmax ([5]; stomach): 17300 ng/g
Tmax ([5]; stomach): 0.5 h
half-life ([5]; stomach): 3.6 h
AUC0-? ([5]; adrenals): 76421 ng*h/G
AUCLast ([5]; adrenals): 75782 ng*h/G
AUC0-? ([5]; bladder): 17546 ng*h/G
AUCLast ([5]; bladder): 17386 ng*h/G
AUC0-? ([5]; brain): 7756 ng*h/G
AUCLast ([5]; brain): 7729 ng*h/G
AUC0-? ([5]; intestine): 52421 ng*h/G
AUCLast ([5]; intestine): 51891 ng*h/G
AUC0-? ([5]; kidney): 152790 ng*h/G
AUCLast ([5]; kidney): 152492 ng*h/G
AUC0-? ([5]; liver): 286210 ng*h/G
AUCLast ([5]; liver): 284827 ng*h/G
AUC0-? ([5]; lung): 76908 ng*h/G
AUCLast ([5]; lung): 76622 ng*h/G
AUC0-? ([5]; pancreas): 53297 ng*h/G
AUCLast ([5]; pancreas): 53163 ng*h/G
AUC0-? ([5]; spleen): 627382 ng*h/G
AUCLast ([5]; spleen): 406119 ng*h/G
AUC0-? ([5]; stomach): 32717 ng*h/G
AUCLast ([5]; stomach): 32467 ng*h/G
AUC ([6]; 20 mg/kg PO): 2520 ng·h/mL
Cmax ([6]; 20 mg/kg PO): 159 ng/mL
Tmax ([6]; 20 mg/kg PO): 5.33 h
half-life ([6]; 20 mg/kg PO): 6.58 h
bioavailability ([6]; 20 mg/kg PO vs 2 mg/kg IV, read-out: Oral Bioavailability (% F)): 60.8%
Cmax ([7]; CD-1, mouse, po, brain): 1690 ng/g
Cmax ([7]; CD-1, mouse, po, plasma): 378 ng/mL
AUC ([7]; CD-1, mouse, po, plasma, read-out: AUC): 2340 ng·h/mL
AUC ([7]; brain): 7,765 ng/g · hr
Structure (SMILES): COc1cc(Nc2nccc(Nc3cccnc3-c3ccccn3)n2)ccc1N1CCN(C)CC1 [Compound 2, N^4-(2,2′-bipyridin-3-yl)-N^2-(3-methoxy-4-(4-methylpiperazin-1-yl)phenyl)pyrimidine-2,4-diamine]
Activity in proliferation assay [2]: selective activity against the mutated cell line
Inhibition of ALK2 receptors having various mutations [8]: effective in inhibiting ALK2 receptors having various mutations
